Test [1] has as its target T1, Sodium-dependent dopamine transporter (Rattus norvegicus, UniProt P23977). Nature of the test: Inhibitory activity against [3H]dopamine uptake in rat striatal tissue. The format is functional, tissue-based, Striatum.
The target in test [2] is T1, Sodium-dependent dopamine transporter. Nature of the test: Inhibition of [3H]WIN-35428 binding to dopamine transporter using rat striatal tissue. The format is tissue-based, Striatum.
In test [3] the target is Sodium-dependent dopamine transporter (Rattus norvegicus) (UniProt P23977).
Sequence of Sodium-dependent dopamine transporter (Rattus norvegicus) (P23977 whole entry): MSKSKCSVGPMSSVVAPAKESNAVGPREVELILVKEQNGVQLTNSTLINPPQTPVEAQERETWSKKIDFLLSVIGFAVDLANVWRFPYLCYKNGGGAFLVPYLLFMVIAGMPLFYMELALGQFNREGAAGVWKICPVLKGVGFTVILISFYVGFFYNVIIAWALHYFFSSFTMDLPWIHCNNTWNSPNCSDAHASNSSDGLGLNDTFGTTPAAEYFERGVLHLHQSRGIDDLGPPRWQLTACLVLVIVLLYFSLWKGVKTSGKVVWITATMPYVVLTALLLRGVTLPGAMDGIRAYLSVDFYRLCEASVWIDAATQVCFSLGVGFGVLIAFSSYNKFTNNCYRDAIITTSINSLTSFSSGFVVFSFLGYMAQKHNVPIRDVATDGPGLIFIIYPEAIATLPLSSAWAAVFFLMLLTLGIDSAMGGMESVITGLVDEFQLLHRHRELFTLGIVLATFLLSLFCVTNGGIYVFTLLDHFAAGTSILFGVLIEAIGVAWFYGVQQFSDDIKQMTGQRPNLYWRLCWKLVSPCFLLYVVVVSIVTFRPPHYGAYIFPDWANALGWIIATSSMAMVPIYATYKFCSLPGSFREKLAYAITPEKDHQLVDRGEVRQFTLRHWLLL
Description: The compound Hill coefficient value determined for WIN-Binding

The term IC50 denotes the point on the concentration scale where inhibition reaches its midpoint. A high value points to weaker potency. Usually Hill coefficient stands for a measure of the steepness of the concentration-response curve.

T1 sequence (P23977 whole entry): as above

Regarding `COC(=O)[C@@H](c1cccc(Cl)c1)[C@@H]1CCCCN1`, the IC50 in test [1] stood at 23 nM; in test [2], 5.1 nM. The compound further had a Hill coefficient in test [3] of 0.95.

In the case of `COC(=O)[C@@H](c1ccc(Cl)c(Cl)c1)[C@@H]1CCCCN1`, the IC50 in test [1] worked out at 7 nM; in test [2], 5.3 nM. In test [3], this compound returned a Hill coefficient of 2.07.

`COC(=O)[C@@H](c1ccc(C(C)(C)C)cc1)[C@@H]1CCCCN1` showed a Hill coefficient in test [3] of 1.12.

Take `COC(=O)C(c1ccccc1Cl)C1CCCCN1` (single isomer, unassigned): the concentration for half-maximal inhibition (IC50) was determined as 61000 nM in test [1] and 52500 nM in test [2]. In test [3], the Hill coefficient is 0.92.

Regarding `COC(=O)[C@@H](c1ccccc1Cl)[C@@H]1CCCCN1`, the results for the concentration for half-maximal inhibition (IC50) in test [1] and in test [2] were 2660 nM and 1950 nM, respectively. Further, the Hill coefficient in test [3] is 0.98.

Regarding `COC(=O)[C@@H](c1ccccc1Br)[C@@H]1CCCCN1`, the IC50 in test [1] was determined as 3410 nM; in test [2], 1870 nM. The compound also returned a Hill coefficient in test [3] of 0.93.

As for `COC(=O)[C@@H](c1ccccc1OC)[C@@H]1CCCCN1`, in test [1], 81000 nM corresponded to half-maximal inhibition (IC50). In addition, the Hill coefficient in test [3] stood at 0.94.

In the case of `COC(=O)[C@@H](c1ccc([N+](=O)[O-])cc1)[C@@H]1CCCCN1`, the values for the IC50 in test [1] and in test [2] were 1610 nM and 494 nM, respectively. Also, the Hill coefficient in test [3] amounted to 1.17.

With `COC(=O)[C@@H](c1ccc(OC)c(OC)c1)[C@@H]1CCCCN1`, the IC50 is 1760 nM in test [1] and 810 nM in test [2]. The same compound had a Hill coefficient in test [3] of 1.12.

For the compound `COC(=O)[C@@H](c1ccc(Br)cc1)[C@@H]1CCCCN1`, the results for the IC50 in test [1] and in test [2] were 26.3 nM and 6.9 nM, respectively. For the same compound, the Hill coefficient in test [3] is 1.15.

As to `COC(=O)[C@@H](c1ccc(F)cc1)[C@@H]1CCCCN1`, the IC50 was determined as 142 nM in test [1] and 35 nM in test [2]. The compound also returned a Hill coefficient in test [3] of 0.97.

`COC(=O)[C@@H](c1ccccc1F)[C@@H]1CCCCN1`: the figures for the 50% inhibitory concentration (IC50) in test [1] and in test [2] were 2900 nM and 1420 nM, respectively. In test [3], this compound registered a Hill coefficient of 0.9.

In the case of `COC(=O)[C@@H](c1ccc(I)cc1)[C@@H]1CCCCN1`, the IC50 in test [1] came out at 64.5 nM; in test [2], 14 nM. The same compound had a Hill coefficient in test [3] of 1.1.

As to `COC(=O)[C@@H](c1cccc(F)c1)[C@@H]1CCCCN1`, the values for the IC50 in test [1] and in test [2] were 160 nM and 40.5 nM, respectively. Moreover, in test [3], the Hill coefficient was 0.85.

`COC(=O)[C@@H](c1ccc(O)cc1)[C@@H]1CCCCN1`: the IC50 in test [1] worked out at 340 nM; in test [2], 98 nM. In test [3], the Hill coefficient was determined as 1.07.

For `COC(=O)[C@@H](c1ccc(N)cc1)[C@@H]1CCCCN1`, the IC50 in test [1] worked out at 115 nM; in test [2] it was 34.6 nM. In addition, the Hill coefficient in test [3] is 0.96.

For the compound `COC(=O)[C@@H](c1ccc(Cl)cc1)[C@@H]1CCCCN1`, the results for the IC50 in test [1] and in test [2] were 73.8 nM and 20.6 nM, respectively. The compound further showed a Hill coefficient in test [3] of 1.17.

As to `COC(=O)[C@@H](c1cccc(N)c1)[C@@H]1CCCCN1`, the IC50 stood at 578 nM in test [1] and 265 nM in test [2]. Further, the Hill coefficient in test [3] stood at 1.06.

As to `COC(=O)C(c1ccccc1Br)C1CCCCN1` (single isomer, unassigned), the IC50 is 59000 nM in test [1] and 38100 nM in test [2]. The same compound returned a Hill coefficient in test [3] of 1.06.

As to `COC(=O)[C@@H](c1cccc(Br)c1)[C@@H]1CCCCN1`, the IC50 in test [1] worked out at 12.8 nM; in test [2], 4.2 nM. This compound also displayed a Hill coefficient in test [3] of 1.14.

On to `COC(=O)[C@@H](c1ccccc1O)[C@@H]1CCCCN1`, for which half-maximal inhibition in test [1] (IC50) required 35800 nM. For the same compound, in test [3], the Hill coefficient was 1.04.

Take `COC(=O)[C@H]1[C@@H](OC(=O)c2ccccc2)C[C@@H]2CC[C@H]1N2C`: in test [3], the Hill coefficient turned out to be 1.03.

`COC(=O)[C@@H](c1ccc(C)cc1)[C@@H]1CCCCN1`: the IC50 was determined as 126 nM in test [1] and 33 nM in test [2]. Moreover, the Hill coefficient in test [3] is 1.05.

Turning to `COC(=O)C(c1ccccc1OC)C1CCCCN1` (single isomer, unassigned), the IC50 in test [1] was found to be 290000 nM; in test [2], 139000 nM. In test [3], this compound yielded a Hill coefficient of 0.87.

As for `COC(=O)[C@@H](c1cccc(C)c1)[C@@H]1CCCCN1`, the figures for the IC50 in test [1] and in test [2] were 100 nM and 21.4 nM, respectively. In addition, in test [3], the Hill coefficient was 1.01.

Consider `COC(=O)C(c1cccc(Cl)c1)C1CCCCN1` (single isomer, unassigned), for which the IC50 was 1540 nM in test [1] and 378 nM in test [2]. The compound further gave a Hill coefficient in test [3] of 1.03.

As to `COC(=O)[C@@H](c1ccccc1)[C@@H]1CCCCN1`, the Hill coefficient in test [3] was 0.9.

In test [3], `COC(=O)C(c1ccc(C(C)(C)C)cc1)C1CCCCN1` (single isomer, unassigned) gave a Hill coefficient of 1.1.

Take `COC(=O)[C@@H](c1cccc(O)c1)[C@@H]1CCCCN1`: the IC50 in test [1] came to 790 nM; in test [2], 321 nM. This compound returned a Hill coefficient in test [3] of 1.09.

The values are drawn from ChEMBL document CHEMBL1129037 (J Med Chem, 1996).
